Peptide text beside a SMILES is read from it.
What was measured:
[1] = Inhibitory concentration against Nicotinic acetylcholine receptor alpha 6/alpha-3-beta-4; Range is 0.3-1.5 nM; parameters: species or system Homo sapiens
[2] = Inhibitory concentration against Nicotinic acetylcholine receptor alpha-6-alpha-3-beta-2; Range is 0.3-1.5 nM; parameters: species or system Homo sapiens
[3] = target: Neuronal acetylcholine receptor; alpha3/beta2 (Homo sapiens, UniProt P17787+P32297); assay: Inhibitory concentration against Nicotinic acetylcholine receptor alpha3-beta2; Range is 0.3-1.5 nM; assay type: protein-complex assay
[4] = target: Neuronal acetylcholine receptor; alpha3/beta4 (Homo sapiens, UniProt P30926+P32297); assay: Inhibitory concentration against Nicotinic acetylcholine receptor alpha3-beta4; Range is 0.3-1.5 nM; assay type: protein-complex assay
[5] = target: Neuronal acetylcholine receptor subunit alpha-7 (Homo sapiens, UniProt P36544); assay: Inhibitory concentration against Nicotinic acetylcholine receptor alpha7; Range is 0.3-1.5 nM
[6] = target: Neuronal acetylcholine receptor; alpha2/beta2 (Homo sapiens, UniProt P17787+Q15822); assay: Inhibitory concentration against Nicotinic acetylcholine receptor alpha2-beta2; Range is 0.3-1.5 nM; assay type: protein-complex assay
[7] = target: Neuronal acetylcholine receptor; alpha4/beta4 (Homo sapiens, UniProt P30926+P43681); assay: Inhibitory concentration against Nicotinic acetylcholine receptor alpha4-beta4; Range is 0.3-1.5 nM; assay type: protein-complex assay
[8] = target: Neuronal acetylcholine receptor; alpha4/beta2 (Homo sapiens, UniProt P17787+P43681); assay: Inhibitory concentration against Nicotinic acetylcholine receptor alpha4-beta2; Range is 0.3-1.5 nM; assay type: protein-complex assay
[9] = target: Neuronal acetylcholine receptor; alpha2/beta4 (Homo sapiens, UniProt P30926+Q15822); assay: Inhibitory concentration against Nicotinic acetylcholine receptor alpha2-beta4; Range is 0.3-1.5 nM; assay type: protein-complex assay

Measured: IC50

Chain of Neuronal acetylcholine receptor; alpha4/beta4 (P30926 whole entry): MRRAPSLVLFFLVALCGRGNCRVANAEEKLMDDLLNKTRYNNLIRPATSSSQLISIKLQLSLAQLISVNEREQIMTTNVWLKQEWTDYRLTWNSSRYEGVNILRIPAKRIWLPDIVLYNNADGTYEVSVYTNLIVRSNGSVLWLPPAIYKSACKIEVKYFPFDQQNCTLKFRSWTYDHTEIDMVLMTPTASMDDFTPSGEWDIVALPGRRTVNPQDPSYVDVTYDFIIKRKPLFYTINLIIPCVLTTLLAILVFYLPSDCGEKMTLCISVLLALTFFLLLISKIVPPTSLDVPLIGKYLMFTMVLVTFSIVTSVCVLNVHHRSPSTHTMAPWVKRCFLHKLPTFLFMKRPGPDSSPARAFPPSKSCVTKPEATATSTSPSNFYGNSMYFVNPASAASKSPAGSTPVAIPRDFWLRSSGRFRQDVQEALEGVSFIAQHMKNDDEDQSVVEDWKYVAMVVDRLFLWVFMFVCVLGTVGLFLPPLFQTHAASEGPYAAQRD
Chain of Neuronal acetylcholine receptor; alpha4/beta4 (P43681 whole entry): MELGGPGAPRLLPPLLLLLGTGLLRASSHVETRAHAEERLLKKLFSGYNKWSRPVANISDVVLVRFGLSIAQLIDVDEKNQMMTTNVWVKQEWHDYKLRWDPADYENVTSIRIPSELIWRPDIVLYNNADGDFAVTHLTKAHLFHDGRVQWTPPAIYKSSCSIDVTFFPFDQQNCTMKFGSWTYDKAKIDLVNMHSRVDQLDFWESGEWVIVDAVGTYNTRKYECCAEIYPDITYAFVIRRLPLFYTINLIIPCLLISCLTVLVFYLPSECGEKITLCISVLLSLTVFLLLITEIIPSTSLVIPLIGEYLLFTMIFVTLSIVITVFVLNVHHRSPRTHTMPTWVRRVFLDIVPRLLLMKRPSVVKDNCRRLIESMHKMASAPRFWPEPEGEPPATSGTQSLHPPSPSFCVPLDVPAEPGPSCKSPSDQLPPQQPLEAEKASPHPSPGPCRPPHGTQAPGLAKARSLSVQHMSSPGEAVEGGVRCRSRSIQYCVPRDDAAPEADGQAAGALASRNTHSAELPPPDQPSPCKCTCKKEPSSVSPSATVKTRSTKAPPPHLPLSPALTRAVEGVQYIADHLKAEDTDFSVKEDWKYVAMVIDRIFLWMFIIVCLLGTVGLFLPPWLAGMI
Chain of Neuronal acetylcholine receptor; alpha2/beta4 (P30926 whole entry): as the sequence (P30926 whole entry) above
Chain of Neuronal acetylcholine receptor; alpha2/beta4 (Q15822 whole entry): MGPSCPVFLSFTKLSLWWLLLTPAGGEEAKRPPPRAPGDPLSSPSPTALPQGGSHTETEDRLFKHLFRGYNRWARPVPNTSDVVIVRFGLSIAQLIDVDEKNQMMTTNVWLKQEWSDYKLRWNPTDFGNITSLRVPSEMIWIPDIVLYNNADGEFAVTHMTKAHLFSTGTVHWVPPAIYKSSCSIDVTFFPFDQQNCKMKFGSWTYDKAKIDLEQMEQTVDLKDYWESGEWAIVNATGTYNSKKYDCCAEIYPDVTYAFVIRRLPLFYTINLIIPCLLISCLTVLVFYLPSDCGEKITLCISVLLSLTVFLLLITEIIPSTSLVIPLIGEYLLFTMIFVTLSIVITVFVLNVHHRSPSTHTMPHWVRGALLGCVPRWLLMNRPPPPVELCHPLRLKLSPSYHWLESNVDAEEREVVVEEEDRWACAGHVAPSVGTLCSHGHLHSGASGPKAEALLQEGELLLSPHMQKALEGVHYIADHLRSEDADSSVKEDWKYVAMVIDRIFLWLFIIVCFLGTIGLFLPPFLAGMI
Chain of Neuronal acetylcholine receptor; alpha3/beta4 (P30926 whole entry): as the sequence (P30926 whole entry) above
Chain of Neuronal acetylcholine receptor; alpha3/beta4 (P32297 whole entry): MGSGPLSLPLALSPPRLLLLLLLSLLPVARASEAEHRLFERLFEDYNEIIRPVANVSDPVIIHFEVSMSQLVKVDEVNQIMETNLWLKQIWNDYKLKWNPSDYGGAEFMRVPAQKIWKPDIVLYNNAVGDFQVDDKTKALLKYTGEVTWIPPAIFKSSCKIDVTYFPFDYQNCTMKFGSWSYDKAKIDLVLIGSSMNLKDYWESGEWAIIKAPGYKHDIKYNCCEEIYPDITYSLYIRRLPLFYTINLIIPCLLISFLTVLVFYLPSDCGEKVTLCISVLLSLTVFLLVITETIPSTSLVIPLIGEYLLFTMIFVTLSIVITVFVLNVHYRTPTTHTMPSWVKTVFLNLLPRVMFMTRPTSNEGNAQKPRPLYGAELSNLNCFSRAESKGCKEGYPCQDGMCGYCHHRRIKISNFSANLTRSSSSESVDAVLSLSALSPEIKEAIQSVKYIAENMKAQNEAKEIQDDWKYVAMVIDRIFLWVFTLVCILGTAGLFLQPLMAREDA
Chain of Neuronal acetylcholine receptor subunit alpha-7 (P36544 whole entry): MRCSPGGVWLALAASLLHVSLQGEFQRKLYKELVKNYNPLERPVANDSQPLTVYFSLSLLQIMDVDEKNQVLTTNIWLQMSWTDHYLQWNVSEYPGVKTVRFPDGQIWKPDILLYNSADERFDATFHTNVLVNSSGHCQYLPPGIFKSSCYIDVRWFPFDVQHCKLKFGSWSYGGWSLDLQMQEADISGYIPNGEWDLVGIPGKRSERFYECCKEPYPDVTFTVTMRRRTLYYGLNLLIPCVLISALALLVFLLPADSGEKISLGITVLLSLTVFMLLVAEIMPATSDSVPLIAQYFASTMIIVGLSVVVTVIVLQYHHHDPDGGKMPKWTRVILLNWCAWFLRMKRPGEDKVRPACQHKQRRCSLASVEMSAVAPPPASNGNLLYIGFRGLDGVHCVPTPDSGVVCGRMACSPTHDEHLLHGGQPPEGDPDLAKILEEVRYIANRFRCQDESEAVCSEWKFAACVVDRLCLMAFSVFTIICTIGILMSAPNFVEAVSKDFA
Chain of Neuronal acetylcholine receptor; alpha3/beta2 (P17787 whole entry): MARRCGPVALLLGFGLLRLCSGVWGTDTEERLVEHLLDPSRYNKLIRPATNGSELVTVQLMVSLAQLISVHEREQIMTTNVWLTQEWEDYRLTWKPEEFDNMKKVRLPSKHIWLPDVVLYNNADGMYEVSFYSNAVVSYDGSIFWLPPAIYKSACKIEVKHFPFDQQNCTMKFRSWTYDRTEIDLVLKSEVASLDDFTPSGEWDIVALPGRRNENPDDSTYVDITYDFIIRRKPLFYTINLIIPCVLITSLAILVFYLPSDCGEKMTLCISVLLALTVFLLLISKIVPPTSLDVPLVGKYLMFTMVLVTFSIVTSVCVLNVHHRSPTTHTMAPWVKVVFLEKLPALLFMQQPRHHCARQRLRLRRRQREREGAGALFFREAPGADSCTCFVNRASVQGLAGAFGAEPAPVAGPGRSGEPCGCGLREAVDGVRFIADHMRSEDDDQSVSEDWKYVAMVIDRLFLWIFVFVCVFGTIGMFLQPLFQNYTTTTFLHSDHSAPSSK
Chain of Neuronal acetylcholine receptor; alpha3/beta2 (P32297 whole entry): as the sequence (P32297 whole entry) above
Chain of Neuronal acetylcholine receptor; alpha4/beta2 (P17787 whole entry): as the sequence (P17787 whole entry) above
Chain of Neuronal acetylcholine receptor; alpha4/beta2 (P43681 whole entry): as the sequence (P43681 whole entry) above
Chain of Neuronal acetylcholine receptor; alpha2/beta2 (P17787 whole entry): as the sequence (P17787 whole entry) above
Chain of Neuronal acetylcholine receptor; alpha2/beta2 (Q15822 whole entry): as the sequence (Q15822 whole entry) above

CC(C)C[C@H](NC(=O)[C@@H](NC(=O)[C@H](C)NC(=O)[C@H](CS)NC(=O)[C@@H]1CCCN1C(=O)[C@@H]1CCCN1C(=O)[C@@H](NC(=O)[C@H](CO)NC(=O)[C@H](CS)NC(=O)[C@H](CS)NC(=O)CN)[C@@H](C)O)C(C)C)C(=O)N[C@@H](Cc1ccc(O)cc1)C(=O)N[C@@H](CS)C(=O)NCC(=O)N[C@@H](CCCN=C(N)N)C(=O)N[C@@H](CCCN=C(N)N)C(=O)N[C@H](C=O)CCCN=C(N)N (H-GCCSTPPCAVLYCGRRR-aldehyde)
1.5 nM: [1] | [2]

CC(C)C[C@H](NC(=O)[C@@H](NC(=O)[C@H](C)NC(=O)[C@H](CS)NC(=O)[C@@H]1CCCN1C(=O)[C@@H]1CCCN1C(=O)[C@@H](NC(=O)[C@H](CO)NC(=O)[C@H](CS)NC(=O)[C@H](CS)NC(=O)CN)[C@@H](C)O)C(C)C)C(=O)N[C@@H](Cc1ccc(O)cc1)C(=O)N[C@@H](CS)C(=O)NCC(=O)N[C@@H](CCCNC(=N)N)C(=O)N[C@@H](CCCNC(=N)N)C(=O)N[C@H](C=O)CCCNC(=N)N (H-GCCSTPPCAVLYCGRRR-aldehyde)
1.5 nM: [3] | [4] | [5] | [6] | [7] | [8] | [9]
